Laboratory results published in patent publication US12655126B2, “Imidazole-pyrazole derivatives as antibacterials” (Hoffmann-La Roche Inc., priority 2020, dated 2026).
Structures can show the parent of a compound that is named as a salt. Where two headings read alike, the source gives them in different places.

Test system: Acinetobacter baumannii ATCC17961
Experiment: Antimicrobial susceptibility testing: 90% growth inhibitory concentration (IC90) determination
Format: cell-based
Settings: read-out: ATCC 17961 IC90
Method: Antimicrobial Susceptibility Testing:
90% Growth Inhibitory Concentration (IC90) Determination
The in vitro antimicrobial activity of the compounds was determined according to the following procedure:
The assay used a 10-points Iso-Sensitest broth medium to measure quantitatively the in vitro activity of the compounds against Acinetobacter baumannii ATCC17961.
Stock compounds in DMSO were serially twofold diluted (e.g. range from 50 to 0.097 μM final concentration) in 384 wells microtiter plates and inoculated with 49 μl the bacterial suspension in Iso-Sensitest medium to have a final cell concentration of ˜5×10^(5) CFU/ml in a final volume/well of 50 ul/well. Microtiter plates were incubated at 35±2° C.
Bacterial cell growth was determined with the measurement of optical density at λ=600 nm each minutes over a time course of 16 h. Growth inhibition was calculated during the logarithmic growth of the bacterial cells with determination of the concentration inhibiting 50% (IC50) and 90% (IC90) of the growth.
Table 1 provides the 90% growth inhibitory concentrations (IC90) in micromoles per liter of the compounds of present invention obtained against the strain Acinetobacter baumannii ATCC17961.

[1] = Acinetobacter baumannii, ATCC17961, 16 h
[2] = Acinetobacter baumannii ATCC17961, Iso-Sensitest broth, growth by OD 600 nm over 16 h, 90% growth inhibitory concentration

SMILES | IC90 [1] | IC90 [2]
Cn1c(-c2cn(-c3ncccn3)nc2C(F)(F)F)cnc1C(=O)Nc1ccc(C(=O)N[C@H]2[C@@H]3CN(C(=O)[C@@H]4C[C@@H](O)C[N+]4(C)C)C[C@@H]32)c(Cl)c1 (racemic) [Example B8, rac-(2R,4S)-2-((1R,5S,6S)-6-(2-chloro-4-(1-methyl-5-(1-(pyrimidin-2-yl)-3-(trifluoromethyl)-1H-pyrazol-4-yl)-1H-imidazole-2-carboxamido)benzamido)-3-azabicyclo[3.1.0]hexane-3-carbonyl)-4-hydroxy-1,1-dimethylpyrrolidin-1-ium] | 1500 nM | 
Cn1c(-c2cn(-c3ccc(N)cn3)nc2C(F)(F)F)cnc1C(=O)Nc1ccc(C(=O)N2CCN(C(=O)[C@@H]3[C@@H](O)CC[N+]3(C)C)CC2)c(Cl)c1 (racemic) [Example D2, 5-[1-(5-amino-2-pyridyl)-3-(trifluoromethyl)pyrazol-4-yl]-N-[3-chloro-4-[4-[(2S,3S)-3-hydroxy-1,1-dimethyl-pyrrolidin-1-ium-2-carbonyl]piperazine-1-carbonyl]phenyl]-1-methyl-imidazole-2-carboxamide; formate] |  | 400 nM
Cn1c(-c2cn(-c3ccc(N)cn3)nc2C(F)(F)F)cnc1C(=O)Nc1ccc(C(=O)N[C@H]2[C@@H]3CN(C(=O)N[C@@H]4C[N+](C)(C)C[C@H]4O)C[C@@H]32)c(Cl)c1 (racemic) [Example D18, (exo)-6-[[4-[[5-[1-(5-Aminopyridin-2-yl)-3-(trifluoromethyl)pyrazol-4-yl]-1-methylimidazole-2-carbonyl]amino]-2-chlorobenzoyl]amino]-N-[rac-(trans)-4-hydroxy-1,1-dimethylpyrrolidin-1-ium-3-yl]-3-azabicyclo[3.1.0]hexane-3-carboxamide; formate] | 290 nM | 
Cn1c(-c2cn(-c3ccc(N)cn3)nc2C(F)(F)F)cnc1C(=O)Nc1ccc(C(=O)N2CCN(C(=O)[C@@H]3CC[N+](C)(C)C[C@@H]3O)CC2)c(Cl)c1 (stereo in doubt) [Example D5, 5-[1-(5-amino-2-pyridyl)-3-(trifluoromethyl)pyrazol-4-yl]-N-[3-chloro-4-[4-[(3R,4R)-3-hydroxy-1,1-dimethyl-piperidin-1-ium-4-carbonyl]piperazine-1-carbonyl]phenyl]-1-methyl-imidazole-2-carboxamide; formate] |  | 240 nM
Cn1c(-c2cn(-c3ccc(N)cn3)nc2C(F)(F)F)cnc1C(=O)Nc1ccc(C(=O)N2CCN(C(=O)[C@@H]3CC[N+](C)(C)C[C@H]3O)CC2)c(Cl)c1 (stereo in doubt) [Example D6, 5-[1-(5-amino-2-pyridyl)-3-(trifluoromethyl)pyrazol-4-yl]-N-[3-chloro-4-[4-[(3S,4R)-3-hydroxy-1,1-dimethyl-piperidin-1-ium-4-carbonyl]piperazine-1-carbonyl]phenyl]-1-methyl-imidazole-2-carboxamide; formate] |  | 370 nM
Cn1c(-c2cn(-c3ccc(N)cn3)nc2C(F)(F)F)cnc1C(=O)Nc1ccc(C(=O)N2CCN(C(=O)[C@H]3CC[N+](C)(C)C[C@H]3O)CC2)c(Cl)c1 (stereo in doubt) [Example D7, 5-[1-(5-amino-2-pyridyl)-3-(trifluoromethyl)pyrazol-4-yl]-N-[3-chloro-4-[4-[(3S,4S)-3-hydroxy-1,1-dimethyl-piperidin-1-ium-4-carbonyl]piperazine-1-carbonyl]phenyl]-1-methyl-imidazole-2-carboxamide; formate] |  | 400 nM
Cn1c(-c2cn(-c3ccc(N)cn3)nc2C(F)(F)F)cnc1C(=O)Nc1ccc(C(=O)N2CCN(C(=O)[C@H]3CC[N+](C)(C)C[C@@H]3O)CC2)c(Cl)c1 (stereo in doubt) [Example D8, 5-[1-(5-amino-2-pyridyl)-3-(trifluoromethyl)pyrazol-4-yl]-N-[3-chloro-4-[4-[(3R,4S)-3-hydroxy-1,1-dimethyl-piperidin-1-ium-4-carbonyl]piperazine-1-carbonyl]phenyl]-1-methyl-imidazole-2-carboxamide; formate] |  | 230 nM
COc1ccc(-n2cc(-c3cnc(C(=O)Nc4ccc(C(=O)N5CCN(C(=O)C6CC[N+](C)(C)CC6)CC5)c(Cl)c4)n3C)c(C(F)(F)F)n2)nc1 [Example A1, N-[3-Chloro-4-[4-(1,1-dimethylpiperidin-1-ium-4-carbonyl)piperazine-1-carbonyl]phenyl]-5-[1-(5-methoxy-2-pyridyl)-3-(trifluoromethyl)pyrazol-4-yl]-1-methyl-imidazole-2-carboxamide; formate] | 95 nM | 
Cn1c(-c2cn(-c3ccc(C(N)=O)cn3)nc2C(F)(F)F)cnc1C(=O)Nc1ccc(C(=O)N2CCN(C(=O)C3CC[N+](C)(C)CC3)CC2)c(Cl)c1 [Example A2, 6-[4-[2-[[3-chloro-4-[4-(1,1-dimethylpiperidin-1-ium-4-carbonyl)piperazine-1-carbonyl]phenyl]carbamoyl]-3-methyl-imidazol-4-yl]-3-(trifluoromethyl)pyrazol-1-yl]pyridine-3-carboxamide; formate] |  | 980 nM
CNC(=O)c1ccc(-n2cc(-c3cnc(C(=O)Nc4ccc(C(=O)N5CCN(C(=O)C6CC[N+](C)(C)CC6)CC5)c(Cl)c4)n3C)c(C(F)(F)F)n2)nc1 [Example A3, 6-[4-[2-[[3-chloro-4-[4-(1,1-dimethylpiperidin-1-ium-4-carbonyl)piperazine-1-carbonyl]phenyl]carbamoyl]-3-methyl-imidazol-4-yl]-3-(trifluoromethyl)pyrazol-1-yl]-N-methyl-pyridine-3-carboxamide; formate] |  | 820 nM
Cc1ccc(-n2cc(-c3cnc(C(=O)Nc4ccc(C(=O)N5CCN(C(=O)C6CC[N+](C)(C)CC6)CC5)c(Cl)c4)n3C)c(C(F)(F)F)n2)nc1 [Example A4, N-[3-chloro-4-[4-(1,1-dimethylpiperidin-1-ium-4-carbonyl)piperazine-1-carbonyl]phenyl]-1-methyl-5-[1-(5-methyl-2-pyridyl)-3-(trifluoromethyl)pyrazol-4-yl]imidazole-2-carboxamide; formate] |  | 250 nM
Cn1c(-c2cn(-c3ccc(N)cn3)nc2C(F)F)cnc1C(=O)Nc1ccc(C(=O)N2CCN(C(=O)C3CC[N+](C)(C)CC3)CC2)c(Cl)c1 [Example A5, 5-[1-(5-amino-2-pyridyl)-3-(difluoromethyl)pyrazol-4-yl]-N-[3-chloro-4-[4-(1,1-dimethylpiperidin-1-ium-4-carbonyl)piperazine-1-carbonyl]phenyl]-1-methyl-imidazole-2-carboxamide; 2,2,2-trifluoroacetate] |  | 760 nM
Cn1c(-c2cn(-c3ncccn3)nc2C(F)(F)F)cnc1C(=O)Nc1ccc(C(=O)N2CCN(C(=O)C[N+]3(C)CC[C@@H](O)C3)CC2)c(Cl)c1 (stereo partly drawn) [Example A6, N-[3-chloro-4-[4-[2-[(3R)-3-hydroxy-1-methyl-pyrrolidin-1-ium-1-yl]acetyl]piperazine-1-carbonyl]phenyl]-1-methyl-5-[1-pyrimidin-2-yl-3-(trifluoromethyl)pyrazol-4-yl]imidazole-2-carboxamide; formate] | 1300 nM | 
COc1ccc(-n2cc(-c3cnc(C(=O)Nc4ccc(C(=O)N5CCN(C(=O)C[N+]6(C)CC[C@@H](O)C6)CC5)c(Cl)c4)n3C)c(C(F)(F)F)n2)nc1 (stereo partly drawn) [Example A7, N-[3-chloro-4-[4-[2-[(3R)-3-hydroxy-1-methyl-pyrrolidin-1-ium-1-yl]acetyl]piperazine-1-carbonyl]phenyl]-5-[1-(5-methoxy-2-pyridyl)-3-(trifluoromethyl)pyrazol-4-yl]-1-methyl-imidazole-2-carboxamide; formate] |  | 550 nM
Cn1c(-c2cn(-c3ncc(N)cc3F)nc2C(F)(F)F)cnc1C(=O)Nc1ccc(C(=O)N2CCN(C(=O)C3CC[N+](C)(C)CC3)CC2)c(Cl)c1 [Example A8, 5-[1-(5-amino-3-fluoro-2-pyridyl)-3-(trifluoromethyl)pyrazol-4-yl]-N-[3-chloro-4-[4-(1,1-dimethylpiperidin-1-ium-4-carbonyl)piperazine-1-carbonyl]phenyl]-1-methyl-imidazole-2-carboxamide] |  | 330 nM
Cc1cc(-n2cc(-c3cnc(C(=O)Nc4ccc(C(=O)N5CCN(C(=O)C6CC[N+](C)(C)CC6)CC5)c(Cl)c4)n3C)c(C(F)(F)F)n2)ncc1N [Example A9, 5-[1-(5-amino-4-methyl-2-pyridyl)-3-(trifluoromethyl)pyrazol-4-yl]-N-[3-chloro-4-[4-(1,1-dimethylpiperidin-1-ium-4-carbonyl)piperazine-1-carbonyl]phenyl]-1-methyl-imidazole-2-carboxamide] |  | 290 nM
Cn1c(-c2cn(-c3ccc(N)c(F)n3)nc2C(F)(F)F)cnc1C(=O)Nc1ccc(C(=O)N2CCN(C(=O)C3CC[N+](C)(C)CC3)CC2)c(Cl)c1 [Example A10, 5-[1-(5-amino-6-fluoro-2-pyridyl)-3-(trifluoromethyl)pyrazol-4-yl]-N-[3-chloro-4-[4-(1,1-dimethylpiperidin-1-ium-4-carbonyl)piperazine-1-carbonyl]phenyl]-1-methyl-imidazole-2-carboxamide] |  | 510 nM
Cc1nc(-n2cc(-c3cnc(C(=O)Nc4ccc(C(=O)N5CCN(C(=O)C6CC[N+](C)(C)CC6)CC5)c(Cl)c4)n3C)c(C(F)(F)F)n2)ccc1N [Example A11, 5-[1-(5-amino-6-methyl-2-pyridyl)-3-(trifluoromethyl)pyrazol-4-yl]-N-[3-chloro-4-[4-(1,1-dimethylpiperidin-1-ium-4-carbonyl)piperazine-1-carbonyl]phenyl]-1-methyl-imidazole-2-carboxamide] |  | 230 nM
